According to paper PMC5274652, “Antagonizing Retinoic Acid Receptors Increases Myeloid Cell Production by Cultured Human Hematopoietic Stem Cells” (Archivum Immunologiae et Therapiae Experimentalis, 2016):

How the values were obtained:
zebra fish embryos = tested on: zebra fish embryos; parameters: method as in Wai et al. 2015; conditions: 10 nM, ref Wai et al. 2015; cited from earlier work
NB-4 cells = assay: Differentiation of NB-4 cells (CD11b/CD14 flow cytometry); type: cell-based, human; conditions: NB-4 cells, 96 h
Procedure: (§1) NB-4 and KG1 cells were obtained from the German Resource Center for Biological Material (DSMZ GmbH, Braunschweig, Germany). The cells were grown in RPMI-1640 medium supplemented with 10 % fetal bovine serum (FBS), 100 U/ml penicillin, and 100 µg/ml streptomycin (Sigma, St Louis, MO, USA). Cells were grown at 37 °C in 5 % CO2.
(§2) The expression of differentiation markers at the cell surface was determined by flow cytometry. Differentiation of NB-4 and KG1 cells was measured by staining using the monoclonal antibodies CD11b-FITC and CD14-PE and appropriately labeled isotype controls (all from ImmunoTools, Friesoythe, Germany). Differentiation of human CD34^+ve cells was measured by triple-color staining using various cocktails of phycoerythrin-, fluorescein isothyocyanate-, and PerCP-monoclonal antibodies (from Becton–Dickinson, San Jose, CA, USA). The markers used to identify cell populations were as follows: CD45^+ve leukocytes; CD34^+ve/CD133^+ve HSCs; CD33^+ve/CD13^+ve immature myeloid; CD117^+ve myeloblasts and promyelocytes; CD11b^+ve/CD15^+ve mature myeloid; CD11b^+ve/CD65^+ve neutrophils; CD11b^+ve/CD14^+ve monocytes; glycophorin^+ve A erythroid cells; CD61^+ve megakaryoblasts and platelets; CD2^+ve/CD5^+ve/CD7^+ve T cells and NK cells; CD56^+ve NK cells; CD19^+ve/CD20^+ve B cells; and CD10^+ve B lymphocyte progenitors; and present on mature neutrophils and DR^+ve progenitors and present on mature monocytes. The cells were stained with 1 µl of the fluorescently labeled antibody (or the appropriate control immunoglobulin) for 1 h on ice. Next, they were washed with ice-cold phosphate-buffered saline (PBS) and suspended in 0.5 ml PBS supplemented with 0.1 % bovine serum albumin (Sigma, St Louis, MO, USA) prior to analysis on FACS Calibur flow cytometer (Becton–Dickinson, San Jose, CA, USA). The acquisition parameters were set for an isotype control. Cells were analyzed using a FACSCalibur, and data analysis was performed using the CellQuest Pro software (Becton–Dickinson, San Jose, CA, USA).

RARβ = biological target: T1, RARβ (Homo sapiens, UniProt P10826); assay: Retinoid receptor transactivation assay in transfected CV-1 cells, RARβ; type: cell-based
T1 construct: expressed in transfected cells; host or cells: CV-1 kidney fibroblast cells
T1 sequence (P10826 183-417 limits assumed): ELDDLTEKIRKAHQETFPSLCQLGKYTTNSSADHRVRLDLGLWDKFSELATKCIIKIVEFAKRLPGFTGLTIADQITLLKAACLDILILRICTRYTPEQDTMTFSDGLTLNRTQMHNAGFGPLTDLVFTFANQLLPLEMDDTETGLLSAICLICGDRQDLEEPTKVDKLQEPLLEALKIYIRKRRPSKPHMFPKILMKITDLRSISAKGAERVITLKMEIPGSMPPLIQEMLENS
Source text: (§3) For transactivation studies, we used CV-1 kidney fibroblast cells and LNCaP prostate adenocarcinoma cells that can be readily and reproducibly transfected with plasmids and reporters. Transactivation assays using CV-1 cells were undertaken essentially as described previously (Nagpal et al. [1995]). Briefly, CV-1 cells were transiently transfected with a plasmid-containing ERE-tk-Luc promoter-reporter construct using Lipofectamine as described in the manufacturer’s protocol (Fisher Scientific, Loughborough, UK). ERE-tk-Luc transcript comprises a luciferase reporter under control of an estrogen receptor response element. The cells were also transiently transfected with expression vector encoding a fusion protein containing the ligand-binding domain of RARα, RARβ, or RARγ fused to an estrogen receptor DNA-binding domain. Twenty-four hours after transfection, the cells were treated with retinoids under test for 16 h in culture medium-containing 2.5 % charcoal-treated FBS and lysed for determination of luciferase and β-galactosidase activities. Luciferase activity was measured using the Dual-Luciferase Reporter 100 Assay System (Promega, Southampton, UK), and β-galactosidase activity was determined by colorimetric assay. The reporter activity was normalized against β-galactosidase activity. […]

RARα = biological target: T2, RARα (Homo sapiens, UniProt P10276)
T2 sequence (P10276 183-417 limits assumed): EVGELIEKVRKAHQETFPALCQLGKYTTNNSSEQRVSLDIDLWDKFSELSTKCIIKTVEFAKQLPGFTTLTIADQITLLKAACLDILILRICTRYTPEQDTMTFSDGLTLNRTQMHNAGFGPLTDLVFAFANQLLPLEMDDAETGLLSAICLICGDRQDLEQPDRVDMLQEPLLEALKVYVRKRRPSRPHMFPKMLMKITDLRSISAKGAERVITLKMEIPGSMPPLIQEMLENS
Source text: as §3

KG1 cells = assay: Differentiation of KG1 cells (CD11b/CD14 flow cytometry); type: cell-based, human; conditions: KG1 cells, 1 μM combined with 10 nM 1,25D, 96 h
Procedure: as §1, §2

RARγ = biological target: T3, RARγ (Homo sapiens, UniProt P13631); assay: Retinoid receptor transactivation assay in transfected CV-1 cells, RARγ; type: cell-based
T3 construct: expressed in transfected cells; host or cells: CV-1 kidney fibroblast cells
T3 sequence (P13631 185-419 limits assumed): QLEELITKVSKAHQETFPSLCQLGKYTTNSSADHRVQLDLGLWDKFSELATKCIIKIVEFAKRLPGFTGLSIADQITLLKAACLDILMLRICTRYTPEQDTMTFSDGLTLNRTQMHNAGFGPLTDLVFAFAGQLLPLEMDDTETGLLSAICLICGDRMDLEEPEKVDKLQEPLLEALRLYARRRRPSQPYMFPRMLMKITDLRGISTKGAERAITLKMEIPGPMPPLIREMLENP
Source text: as §3

For `CC1(C)CCC(C)(C)c2cc(/C(=N\O)c3cc4cc(C(=O)O)ccc4[nH]3)ccc21` [AGN205327], the “effect on stem cell populations and development” value (zebra fish embryos) is listed as “Stem cell populations were maintained at the expense of the development of bones and neural ganglia”.
For `CC1=C(/C=C/C(C)=C/C=C/C(C)=C/C(=O)O)C(C)(C)CCC1` [ATRA, all-trans retinoic acid], the “CD11b+ve/CD14+ve cells (monocyte differentiation)” value (NB-4 cells; 1 μM combined with 10 nM 1,25D) was ~ 36%, the “CD11b+ve/CD14+ve cells (monocyte differentiation)” value (NB-4 cells; 1 μM, alone) was ~ 10% and the “ATRA concentration of maximal activation, RARβ” value (RARβ) was ~ 5 × 10^−9 M. The “concentration required to activate RARα (reporter assays)” value (RARα; discussion, order of magnitude) was ~10^−8 M, the “ATRA concentration at which maximal effect on RARα transactivation is observed” value (RARα; transfected CV-1 cells) was ~10^−7 M and the “CD11b+ve/CD14+ve cells (monocyte differentiation)” value (KG1 cells) was 26%. The “concentration at which RARγ is activated (reporter assays)” value (RARγ; discussion, order of magnitude) was ~10^−10 M and the “ATRA concentration of maximal activation, RARγ” value (RARγ; transfected CV-1 cells) was ~ 5 × 10^−9 M.
